This is an account of results in PubChem BioAssay (NCI).

Common to all, as to experiment: NCI anticancer screen, dose series, 48 h
For assay [1], the system named is HCT-15 colon.
Assay [2] has as its system UACC-257 melanoma.
Assay [3] relates to SK-MEL-28 melanoma.
Assay [4] deals with OVCAR-8 ovarian.
Assay [5] deals with K-562 leukemia.
In assay [6] the test system is UACC-62 melanoma.
Assay [7] concerns A498 renal.
Assay [8] concerns BT-549 breast.

Several values for one entry are separate records, joined by “and”; a condition that tells them apart may be missing. Equal entries are not always repeated.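 Cells were grown in 96-well plates and exposed to each compound for 48 hours at five concentrations; endpoints were interpolated linearly between bracketing concentrations, or set to the highest concentration if not reached. At the GI50, growth is halved. Definition used: TGI = concentration required for complete inhibition of growth.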 Where only a bound is given, the exact number is not on record here.

Take `O=S(=O)(O)c1cc(O)c(N=Nc2ccc(O)cc2O)c2ccccc12`: the TGI in assay [1], in assay [2], in assay [3], in assay [4] and in assay [5] was > 100 µM in each case.

As to `COc1cc(Nc2ncc(-c3ccccc3)o2)cc(OC)c1`, the GI50 in assay [6] is > 25 µM; in assay [7] it was 5.57 µM; in assay [1], 18.6 µM; in assay [2], > 25 µM; in assay [8], > 25000 nM; in assay [3] it was > 25 µM. Also, the values for the GI50 in assay [4] and in assay [5] were > 25 µM and > 22.5 µM, respectively. Besides, the TGI in assay [6], in assay [7], in assay [1], in assay [2], in assay [8] and in assay [3] was > 25 µM in each case. Besides, the TGI in assay [4] and in assay [5] was > 25 µM in each case.

In the case of `O=C([CH-]C(=O)c1ccccc1)c1ccccc1.[CH-]1CCCCC1.[CH-]1CCCCC1.[CH-]1CCCCC1.[Sn+4]`, the GI50 in assay [6] is 4.34 µM; in assay [7] it was 15.4 µM; in assay [1], 5.67 µM; in assay [2], 4.29 µM; in assay [4] it was 5.47 µM; in assay [5] it was 2.31 µM. Moreover, the TGI was found to be 15.6 µM in assay [6]; 28.9 µM in assay [7]; 18.4 µM in assay [1]; 19.2 µM in assay [2]; 55.4 µM in assay [4]; 6.15 µM in assay [5].

As for `COCc1c(-c2cc3cc(C)cc(OC)c3s2)c2c(N)ncnn2c1CN1CCNC(=O)C1`, the GI50 is 4.08 µM in assay [6]; 0.0102 µM in assay [7]; 3.63 µM in assay [1]; 4.06 µM in assay [2]; 1030 nM in assay [8]; 9.38 µM in assay [3]. For the same molecule, in assay [4], the GI50 was 4.85 µM. The TGI in assay [6] was 23.5 µM; in assay [7], 0.0803 µM; in assay [1] it was 83.7 µM; in assay [2], 34.6 µM; in assay [8], 17.1 µM; in assay [3] it was 70.3 µM. The TGI in assay [4] is > 100 µM.

As to `COc1ccc(Cc2coc3ccccc3c2=O)cc1OC`, the TGI in assay [6], in assay [1], in assay [2], in assay [8], in assay [3] and in assay [4] was > 100 µM in each case. Also, the TGI in assay [5] was > 100 µM.

As for `CC(N)(Cc1c[nH]c2cccc(F)c12)C(=O)O` (stereo unspecified), the GI50 in assay [6], in assay [7], in assay [1], in assay [2], in assay [3] and in assay [4] was > 1000 µM throughout. For the same molecule, the GI50 in assay [5] was > 1000 µM. For the same molecule, the TGI in assay [6], in assay [7], in assay [1], in assay [2], in assay [3] and in assay [4] was > 1000 µM throughout. In assay [5], the TGI is > 1000 µM.

In the case of `Cc1csc2[n+]1-c1ccccc1N(C(=O)Nc1ccccc1)C(C)C2` (stereo unspecified), the GI50 was 60.4 µM in assay [6]; > 100 µM in assay [1]; > 100 µM in assay [2]; > 100000 nM in assay [8]; > 100 µM in assay [3]; > 100 µM in assay [4]. Moreover, the GI50 in assay [5] was > 100 µM. The TGI in assay [6], in assay [1], in assay [2], in assay [8], in assay [3] and in assay [4] was > 100 µM in each case. In addition, the TGI in assay [5] was > 100 µM.

`O=C(CCCN1CCC(O)(c2ccc(Cl)cc2)CC1)c1ccc(F)cc1`: the TGI was 21.4 µM in assay [6]; 37.5 µM in assay [1]; 46.7 µM in assay [2]; > 100 µM in assay [8]; 36.9 µM in assay [3]; > 100 µM in assay [4]. In addition, in assay [5], the TGI was > 100 µM.

Take `COC(=O)c1ccc(CN2C(=O)C(Cl)=C(Nc3cccc(Cl)c3C)C2=O)cc1`: the GI50 is 13.4 µM in assay [6]; 2.54 µM in assay [7]; 28.4 µM in assay [1]; 45.6 µM in assay [2]; 15.2 µM in assay [3]; 37.2 µM in assay [4]. In addition, the GI50 in assay [5] was 4.32 µM. For the same molecule, the TGI was > 100 µM in assay [6]; 15.2 µM in assay [7]; 78.9 µM in assay [1]; > 100 µM in assay [2]; > 100 µM in assay [3]; > 100 µM in assay [4]. In assay [5], this molecule displayed a TGI of 21.1 µM.

For the molecule `CCCCCCCCCCCCCCCCCCn1cc[n+](C)c1`, the GI50 in assay [6] was 1.04 µM; in assay [7] it was 1.07 µM; in assay [1], 0.689 µM and 0.888 µM; in assay [2], 1.53 µM; in assay [8], 1170 nM; in assay [3], 1.01 µM and 1.15 µM. Moreover, the GI50 in assay [5] is 0.385 µM and 0.312 µM. Further, the TGI is 2.3 µM in assay [6]; 3.09 µM in assay [7]; 2 µM and 2.34 µM in assay [1]; 3.91 µM in assay [2]; 2.71 µM in assay [8]; 2.41 µM and 2.59 µM in assay [3]. Also, the TGI in assay [5] was > 100 µM.

As to `COc1ccc(/C(COc2ccc3oc(-c4ccccc4)cc(=O)c3c2)=N\O)cc1`, the GI50 was 0.0338 µM in assay [6]; 0.0264 µM in assay [1]; 0.316 µM in assay [2]; 836 nM in assay [8]; 0.65 µM in assay [3]; 0.209 µM in assay [4]. Further, the TGI in assay [6] was 2.22 µM; in assay [8] it was 5.5 µM; in assay [3], 5.13 µM; in assay [5] it was > 33.3 µM.

For `COc1ccc(CN2c3ccccc3Sc3ccccc32)c(C(F)(F)F)c1`, the GI50 is 0.917 µM in assay [6]; 0.372 µM in assay [7]; 0.489 µM in assay [1]; 3120 nM in assay [8]; 2.22 µM in assay [4]; 0.395 µM in assay [5]. Besides, the TGI was > 100 µM in assay [6]; > 100 µM in assay [7]; > 100 µM in assay [1]; 31.9 µM in assay [8]; > 100 µM in assay [4]; > 100 µM in assay [5].

For `COc1ccc2c(c1)nc(C(=O)c1ccco1)c(C(F)(F)F)[n+]2[O-]`, the GI50 is > 100 µM in assay [6]; > 100 µM in assay [7]; > 100 µM in assay [1]; > 100000 nM in assay [8]; > 100 µM in assay [3]; > 100 µM in assay [4]. Besides, the GI50 in assay [5] was > 100 µM. The TGI in assay [6], in assay [7], in assay [1], in assay [8], in assay [3] and in assay [4] was > 100 µM throughout. Also, the TGI in assay [5] is > 100 µM.

Turning to `COc1ccc(-c2nc(-c3ccc(C)cc3)cn3ccnc23)cc1`, the GI50 in assay [6] is 4.39 µM; in assay [1], 2.56 µM; in assay [2], 9.54 µM; in assay [8], 26400 nM; in assay [4], > 5 µM; in assay [5] it was 0.815 µM. Besides, the TGI in assay [6] is > 50 µM; in assay [1], > 50 µM; in assay [2], 25.8 µM; in assay [8], > 50 µM; in assay [4], > 5 µM; in assay [5] it was 3.92 µM.

Take `O=C1CC(c2cccc(F)c2)Nc2cc3c(cc21)OCO3` (stereo unspecified): the GI50 in assay [6], in assay [1] and in assay [2] was < 0.01 µM throughout. Also, the TGI was < 0.01 µM in assay [6]; > 100 µM in assay [7]; > 100 µM in assay [1]; > 100 µM in assay [2]; 1.52 µM in assay [4]; > 100 µM in assay [5].

Turning to `Cc1cc2c(cc1Cl)S/C(=C/C(=O)O)C(Nc1ccc3ncsc3c1)=NS2(=O)=O`, the GI50 in assay [6] is 33.5 µM; in assay [1], 27.4 µM; in assay [2] it was > 27.2 µM; in assay [8], 7120 nM; in assay [3] it was 32.4 µM; in assay [4], 32.7 µM. For the same molecule, in assay [5], the GI50 is 42.8 µM. The TGI in assay [6] is > 57.7 µM; in assay [1], > 65.5 µM; in assay [2], > 46 µM; in assay [8] it was 29 µM; in assay [3], > 60.6 µM; in assay [4], > 100 µM. Moreover, in assay [5], the TGI was > 100 µM.

`O=C(Nc1ccccc1)Nc1ccc2cc3ccc(NC(=O)Nc4ccccc4)cc3nc2c1`: the GI50 was 1.75 µM in assay [6]; 2.74 µM in assay [7]; 37.2 µM in assay [1]; 1880 nM in assay [8]; 1.82 µM in assay [3]; 1.15 µM in assay [4]. Further, the GI50 in assay [5] is 0.363 µM. Further, the TGI in assay [6] was 3.21 µM; in assay [7] it was 8.87 µM; in assay [1] it was > 100 µM; in assay [8] it was 3.69 µM; in assay [3], 3.22 µM; in assay [4] it was 2.78 µM. This molecule also displayed a TGI in assay [5] of 1.1 µM.

As to `COC(=O)C1=C(O)[C@H](C(=O)OC)C2(O)C(C(=O)OC)[C@H](c3ccc(OC(=O)C(C)c4ccc(CC(C)C)cc4)cc3)C[C@@H]1[C@@H]2C(=O)OC` (stereo partly specified), the GI50 in assay [6] was 9.41 µM; in assay [1], 12.9 µM; in assay [2], 27.2 µM; in assay [8] it was 1030 nM; in assay [3], 12.6 µM; in assay [4] it was 13.1 µM. In addition, the GI50 in assay [5] was 0.695 µM. The TGI in assay [6] is 22.4 µM; in assay [1] it was > 50 µM; in assay [2] it was > 50 µM; in assay [8], 3.68 µM; in assay [3], 40.8 µM; in assay [4], > 50 µM. For the same molecule, the TGI in assay [5] was > 50 µM.

Consider `CCCCCCCCCCCCCC[N+](C)(C)CCCCCCCCCCCCCC`, for which the GI50 in assay [6] was 1.89 µM; in assay [7] it was 5.07 µM; in assay [1] it was 3.33 µM; in assay [2] it was 2.49 µM; in assay [8], 2380 nM; in assay [5], 2.89 µM. Moreover, the TGI in assay [6] is 5.7 µM; in assay [7] it was 28 µM; in assay [1], > 100 µM; in assay [2], 8.61 µM; in assay [8] it was 5.47 µM; in assay [5], 9.8 µM.

For the molecule `CNC(=O)c1c(NC(=O)c2ccc(C(C)(C)C)cc2)sc2c(CN(C)C)c(O)ccc12`, the GI50 in assay [6] was 1.76 µM; in assay [1] it was 0.459 µM; in assay [2], 1.95 µM; in assay [3] it was 1.73 µM; in assay [5], 0.317 µM. In addition, the TGI in assay [6] amounted to 3.24 µM; in assay [1], 1.82 µM; in assay [2] it was 4.09 µM; in assay [3], 3.19 µM; in assay [5], 1.32 µM.

As to `Nc1ccc(C2=CC(c3ccc(Cl)cc3)N3C=CSC3=N2)cc1` (stereo unspecified), the GI50 in assay [6] was 4.4 µM; in assay [7], 6.17 µM; in assay [1] it was 2 µM; in assay [2] it was 3.8 µM; in assay [8] it was 2640 nM; in assay [3], 4.86 µM. Further, the GI50 in assay [4] was 4.16 µM. The TGI in assay [6] was 18.1 µM; in assay [7], 23.8 µM; in assay [1], 5.63 µM; in assay [2] it was 17 µM; in assay [8] it was 7 µM; in assay [3], 16.6 µM. In assay [4], this molecule yielded a TGI of 48.1 µM.

For the molecule `CC1=C(c2ccccc2)C(O)(c2ccccc2)C(C)C1=O` (stereo unspecified), the GI50 in assay [6] is 9.97 µM; in assay [1], 31.4 µM; in assay [2], 55 µM; in assay [8], 14600 nM; in assay [3] it was 25.5 µM; in assay [4] it was 48 µM. Moreover, the GI50 in assay [5] was 4.71 µM. Also, the TGI in assay [6] was > 100 µM; in assay [1] it was > 100 µM; in assay [2] it was > 100 µM; in assay [8] it was 55.4 µM; in assay [3], > 100 µM; in assay [4], > 100 µM. In addition, the TGI in assay [5] is > 100 µM.
